Results taken from the supplement of paper PMC8671470.
± gives the standard deviation of the averaged measurements.

Key:
Conditions in all cases: 72 h
HL-60 [1] = test: area under dose-response curve (viability, 1 nM-10 uM) (fraction (0-1)); higher = more sensitive
Outline: (§1)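 HL-60 cells in RPMI 1640 with 10% FBS were rescreened against the full library on 384-well plates at five tenfold concentrations, 1–10,000 nM, in duplicate. Each screen was run with DMSO or 100 nM of one of three metabolic inhibitors, for 72 h at 37 °C, 5% CO2. Viability was read by CellTiter-Glo and normalised to DMSO and 10 μM proteasome-inhibitor wells. Where given, area under the curve came from four-parameter log-logistic fits (drc, PharmacoGx).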

MV4-11 [2] = tested on: MV4-11
Outline: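 The IC50 was derived from log-logistic dose–response fitting. Each of fifteen myeloid leukaemia cell lines, seeded in RPMI 1640 within its linear growth range, was exposed in 384-well plates to five tenfold doses (1 to 10,000 nM) in duplicate for 72 h at 37 °C and 5% CO2. Luminescent ATP viability readings were normalised to vehicle and to a positive control at 10 µM before four-parameter curve fitting.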

HL-60 [3] = test: cell viability (% survival relative to DMSO control); higher = less cytotoxic
Outline: as §1

HEL = test: cell viability (% survival relative to DMSO control, bortezomib = 0%); higher = less cytotoxic
Outline: (§2)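 Reported values are percent survival from duplicate wells, averaged. Fifteen myeloid leukaemia cell lines were treated in 384-well plates with compounds at 1, 10, 100, 1000 or 10000 nM for 72 h at 37 °C in 5% CO2. Signals from CellTiter-Glo luminescence were scaled with vehicle as 100% and a 10 µM positive control as 0%.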

MV4-11 [4] = test: as above
Outline: as §2

BV-173 = test: as above
Outline: as §2

MOLM-13 = test: as above
Outline: as §2

KU-812 = test: as above
Outline: as §2

NOMO-1 = test: as above
Outline: as §2

KG-1 = test: as above
Outline: as §2

HL-60 [5] = test: as above
Outline: as §2

KCL-22 = test: as above
Outline: as §2

LAMA-84 = test: as above
Outline: as §2

THP-1 = test: as above
Outline: as §2

ML-2 = test: as above
Outline: as §2

SHI-1 = test: as above
Outline: as §2

Mono-Mac-6 = test: as above
Outline: as §2

K-562 = test: as above
Outline: as §2

COc1ccc2c(C(=S)N(C)CC(=O)O)cccc2c1C(F)(F)F [Tolrestat]
Conditions | area under dose-response curve, co-treatment: AZD3965 100 nM | area under dose-response curve, co-treatment: DMSO vehicle | area under dose-response curve, co-treatment: GSK2194069 100 nM | area under dose-response curve, co-treatment: pictilisib 100 nM | cell viability, 1 nM [%] | cell viability, 10 nM [%] | cell viability, 100 nM [%] | cell viability, 1000 nM [%] | cell viability, 10000 nM [%]
BV-173 | – | – | – | – | 84.3 | 108 | 86.1 | 88.5 | 101
HEL | – | – | – | – | 91.2 | 98.9 | 95 | 93 | 101
HL-60 [1] | < 0.0301 | < 0.0301 | < 0.0301 | < 0.0301 | – | – | – | – | –
HL-60 [5] | – | – | – | – | 107 | 104 | 122 | 49.1 | 101
K-562 | – | – | – | – | 95.4 | 104 | 87.4 | 99.8 | 105
KCL-22 | – | – | – | – | 94.8 | 103 | 105 | 106 | 106
KG-1 | – | – | – | – | 91.8 | 95.3 | 95.6 | 93.5 | 101
KU-812 | – | – | – | – | 88.6 | 118 | 99.8 | 90.8 | 104
LAMA-84 | – | – | – | – | 97.7 | 106 | 100 | 95.6 | 98.6
ML-2 | – | – | – | – | 90.2 | 99 | 103 | 111 | 97.8
MOLM-13 | – | – | – | – | 105 | 149 | 63.3 | 105 | 88.5
MV4-11 [4] | – | – | – | – | 97.4 | 109 | 98.2 | 101 | 86.3
Mono-Mac-6 | – | – | – | – | 86.5 | 113 | 94.1 | 113 | 95.4
NOMO-1 | – | – | – | – | 97.2 | 107 | 106 | 118 | 95.5
SHI-1 | – | – | – | – | 98.6 | 104 | 88.1 | 108 | 101
THP-1 | – | – | – | – | 93.9 | 94.8 | 103 | 104 | 94.4

Conditions | IC50 (cell viability) [µM]
MV4-11 [2] | > 10

cell viability [%], HL-60 [3]
Conditions | 0.001 µM | 0.01 µM | 0.1 µM | 1 µM | 10 µM
co-treatment: AZD3965 100 nM | 97.3 ± 1.8 | 106 ± 5.3 | 104 ± 3.8 | 97.9 ± 4.6 | 98.253 ± 0.033
co-treatment: DMSO vehicle | 96 ± 0.68 | 106 ± 3.4 | 104 ± 2.6 | 99.23 ± 0.18 | 103.9 ± 0.94
co-treatment: GSK2194069 100 nM | 99 ± 1.9 | 104.6 ± 0.97 | 97.5 ± 1.3 | 94.1 ± 4.1 | 97.1 ± 8.5
co-treatment: pictilisib 100 nM | 95.7 ± 3 | 104 ± 8.2 | 96.8 ± 5.6 | 88.1 ± 8.6 | 100 ± 2

CCCCC/C=C\C/C=C\C/C=C\C/C=C\CCCCN1C(=O)C=CC1=O [N-Arachidonylmaleimide]
Conditions | area under dose-response curve, co-treatment: AZD3965 100 nM | area under dose-response curve, co-treatment: DMSO vehicle | area under dose-response curve, co-treatment: GSK2194069 100 nM | area under dose-response curve, co-treatment: pictilisib 100 nM | cell viability, 1 nM [%] | cell viability, 10 nM [%] | cell viability, 100 nM [%] | cell viability, 1000 nM [%] | cell viability, 10000 nM [%]
BV-173 | – | – | – | – | 99.9 | 97.7 | 97.8 | 94.8 | 96.8
HEL | – | – | – | – | 98.7 | 102 | 97.9 | 103 | 89.7
HL-60 [1] | < 0.0301 | < 0.0301 | < 0.0301 | < 0.0301 | – | – | – | – | –
HL-60 [5] | – | – | – | – | 111 | 94.7 | 81.8 | 125 | 88.1
K-562 | – | – | – | – | 103 | 91.5 | 93.4 | 110 | 90.6
KCL-22 | – | – | – | – | 90.9 | 95.7 | 100 | 105 | 95
KG-1 | – | – | – | – | 98.9 | 97.9 | 101 | 93.1 | 103
KU-812 | – | – | – | – | 103 | 97.9 | 94.6 | 97.2 | 91.4
LAMA-84 | – | – | – | – | 96.8 | 99.9 | 98.4 | 97.7 | 96
ML-2 | – | – | – | – | 95.9 | 97.1 | 96.6 | 94.3 | 91
MOLM-13 | – | – | – | – | 98.8 | 109 | 101 | 110 | 88
MV4-11 [4] | – | – | – | – | 82.1 | 97.8 | 106 | 93.2 | 95.3
Mono-Mac-6 | – | – | – | – | 94 | 101 | 91.1 | 107 | 101
NOMO-1 | – | – | – | – | 95.5 | 98.1 | 103 | 96.5 | 99.4
SHI-1 | – | – | – | – | 100 | 102 | 96.7 | 104 | 88.9
THP-1 | – | – | – | – | 102 | 99.2 | 101 | 97.7 | 96.3

Conditions | IC50 (cell viability) [µM]
MV4-11 [2] | > 10

cell viability [%], HL-60 [3]
Conditions | 0.001 µM | 0.01 µM | 0.1 µM | 1 µM | 10 µM
co-treatment: AZD3965 100 nM | 98.7 ± 5.8 | 89.7 ± 24 | 98.58 ± 0.45 | 99.6 ± 8.7 | 101 ± 1.9
co-treatment: DMSO vehicle | 92.6 ± 2.7 | 95.4 ± 5.9 | 101.04 ± 0.026 | 101 ± 7.1 | 100.9 ± 0.64
co-treatment: GSK2194069 100 nM | 96.8 ± 12 | 84.8 ± 18 | 98.4 ± 4.1 | 100 ± 3.1 | 100.5 ± 0.71
co-treatment: pictilisib 100 nM | 96.4 ± 4.4 | 84.8 ± 1.7 | 97 ± 4.4 | 97.89 ± 0.76 | 103 ± 2.2

C=C(C)[C@H]1Cc2c(ccc3c2O[C@@H]2COc4cc(OC)c(OC)cc4[C@@H]2C3=O)O1 [Rotenone]
Conditions | area under dose-response curve, co-treatment: AZD3965 100 nM | area under dose-response curve, co-treatment: DMSO vehicle | area under dose-response curve, co-treatment: GSK2194069 100 nM | area under dose-response curve, co-treatment: pictilisib 100 nM | cell viability, 1 nM [%] | cell viability, 10 nM [%] | cell viability, 100 nM [%] | cell viability, 1000 nM [%] | cell viability, 10000 nM [%]
BV-173 | – | – | – | – | 106 | 77 | 49.9 | 1.45 | 0.515
HEL | – | – | – | – | 99.4 | 92 | 63.2 | 12.3 | 1.89
HL-60 [1] | 0.137 | 0.319 | 0.289 | 0.256 | – | – | – | – | –
HL-60 [5] | – | – | – | – | 97.1 | 79.3 | 82.1 | 0.525 | 3.28
K-562 | – | – | – | – | 88.9 | 66.4 | 30.6 | 3.39 | 2.57
KCL-22 | – | – | – | – | 97.8 | 103 | 81.7 | 0.654 | 1.21
KG-1 | – | – | – | – | 93.6 | 83.7 | 43.7 | 11.5 | 11.6
KU-812 | – | – | – | – | 87.9 | 65.9 | 16.6 | 3.5 | 2.89
LAMA-84 | – | – | – | – | 101 | 87.5 | 51.4 | 18.3 | 14.6
ML-2 | – | – | – | – | 94.4 | 94.1 | 97.1 | 1.51 | 3.18
MOLM-13 | – | – | – | – | 103 | 77.8 | 67.2 | 2.3 | 0.733
MV4-11 [4] | – | – | – | – | 97.2 | 70 | 58.4 | 0.45 | 0.258
Mono-Mac-6 | – | – | – | – | 94.1 | 96.4 | 76.7 | 9.03 | 2.24
NOMO-1 | – | – | – | – | 93.9 | 109 | 92 | 39.8 | 8.45
SHI-1 | – | – | – | – | 96.3 | 93.4 | 73.7 | 4.23 | 5.24
THP-1 | – | – | – | – | 98.9 | 104 | 76.2 | 37.6 | 24.5

Conditions | IC50 (cell viability) [µM]
MV4-11 [2] | 0.156

cell viability [%], HL-60 [3]
Conditions | 0.001 µM | 0.01 µM | 0.1 µM | 1 µM | 10 µM
co-treatment: AZD3965 100 nM | 96.5 ± 2.8 | 99.7 ± 16 | 83 ± 2.4 | 83.4 ± 4.6 | 7.8 ± 1.9
co-treatment: DMSO vehicle | 97.7 ± 17 | 103 ± 5.4 | 86.415 ± 0.053 | 30.8 ± 1.9 | 10.4 ± 4
co-treatment: GSK2194069 100 nM | 86.2 ± 18 | 91.1 ± 11 | 78.3 ± 0.99 | 35.8 ± 0.99 | 12.9 ± 0.53
co-treatment: pictilisib 100 nM | 83.6 ± 6.6 | 74.5 ± 32 | 83.9 ± 5.1 | 34.5 ± 0.37 | 9.82 ± 1.3
